Holding throughout (assay): ≥ marks a high value that may be exact or a test limit, other limits are often not marked, values filed in µg/mL are converted to µM
Assay [1] concerns Escherichia coli ATCC 25922.
Assay [2] concerns Staphylococcus aureus ATCC 25923.
For assay [3], the system named is Pseudomonas aeruginosa ATCC 27853.
For assay [4], the system named is Staphylococcus aureus ATCC 29213.

Values after ≈ are worked out from the molar mass of the structure shown. Values joined by “and” are separate entries in the source; they are usually repeats but may differ in a detail not shown here. Equal values may be shown once.

The MIC is the smallest concentration in the dilution series that meets the test's criterion for growth inhibition. Regarding `CC[C@H](C)[C@H](NC(=O)[C@@H](NC(=O)[C@@H]1CCCN1C(=O)CNC(=O)[C@@H](NC(=O)[C@@H](N)Cc1ccccc1)[C@@H](C)CC)[C@@H](C)CC)C(=O)N[C@@H](CO)C(=O)N[C@@H](C)C(=O)N[C@@H](CC(C)C)C(=O)N[C@@H](C)C(=O)N[C@@H](CO)C(=O)N[C@@H](CC(C)C)C(=O)N[C@@H](Cc1ccccc1)C(=O)NCC(N)=O` [FIGPIISALASLFG], the MIC in assay [1] and in assay [2] was more than 60 µM throughout.
Turning to `CC[C@H](C)[C@H](NC(=O)[C@H](CCCN=C(N)N)NC(=O)[C@H](CCCCN)NC(=O)[C@H](CC(C)C)NC(=O)[C@@H](NC(=O)CN)C(C)C)C(=O)N[C@@H](CCCCN)C(=O)N[C@H](C(=O)N[C@@H](CC(C)C)C(=O)N[C@H](C(N)=O)C(C)C)[C@@H](C)O` [GVLKRIKTLV], the MIC in assay [1] was more than 200 µM.
On the same count and under the same terms, the result for `CC[C@H](C)[C@H](NC(=O)CNC(=O)[C@H](CCSC)NC(=O)[C@H](CCCCN)NC(=O)[C@H](C)NC(=O)[C@H](CC(C)C)NC(=O)[C@H](CCCCN)NC(=O)[C@H](CCC(=O)O)NC(=O)[C@H](CC(C)C)NC(=O)CNC(=O)[C@H](CCCN=C(N)N)NC(=O)[C@H](CC(C)C)NC(=O)[C@@H](NC(=O)[C@H](CO)NC(=O)[C@H](CC(C)C)NC(=O)[C@H](C)N)[C@@H](C)CC)C(=O)N[C@@H](C)C(=O)N[C@@H](CC(C)C)C(=O)N[C@H](C(=O)N[C@@H](CC(N)=O)C(=O)N[C@H]1CSSC[C@@H](C(=O)O)NC(=O)[C@H](CCCCN)NC(=O)[C@H](CCCCN)NC(=O)[C@H]([C@@H](C)O)NC(=O)[C@H](C)NC(=O)[C@H](CCCCN)NC1=O)[C@@H](C)O` [ALSILRGLEKLAKMGIALTNCKATKKC] reads 28 µM (≈ 80.5 µg/mL); that for `CC[C@H](C)[C@H](NC(=O)[C@@H](NC(=O)[C@@H](NC(=O)CNC(=O)[C@H](C)NC(=O)[C@@H](NC(=O)[C@H](CC(N)=O)NC(=O)[C@@H](NC(=O)[C@H](C)NC(=O)[C@H](CC(C)C)NC(=O)[C@H](CC(N)=O)NC(=O)[C@H](CCCCN)NC(=O)[C@@H](NC(=O)[C@@H](NC(=O)[C@H](CO)NC(=O)[C@H](Cc1ccccc1)NC(=O)[C@H](Cc1ccccc1)NC(=O)CN)[C@@H](C)O)C(C)C)[C@@H](C)O)C(C)C)[C@@H](C)O)C(C)C)C(=O)N[C@@H](CC(=O)O)C(=O)N[C@H](C(=O)N[C@@H](CC(C)C)C(=O)N[C@@H](CCCCN)C(=O)N[C@H]1CSSC[C@@H](C(=O)N[C@@H](CCCN=C(N)N)C(=O)N[C@@H](CO)C(=O)O)NC(=O)CNC(=O)CNC(=O)[C@H]([C@@H](C)O)NC(=O)[C@H](C(C)C)NC(=O)[C@H](CCCCN)NC1=O)[C@@H](C)O` [GFFSTVKNLATNVAGTVIDTLKCKVTGGCRS], 78 µM (≈ 249 µg/mL).
`C[C@H](NC(=O)[C@H](Cc1c[nH]c2ccccc12)NC(=O)[C@H](CCCN=C(N)N)NC(=O)[C@H](Cc1c[nH]c2ccccc12)NC(=O)[C@H](C)NC(=O)[C@H](CCCCN)NC(=O)[C@@H](N)Cc1ccc(O)cc1)C(=O)N[C@@H](Cc1c[nH]c2ccccc12)C(=O)N[C@@H](CCCN=C(N)N)C(=O)N[C@@H](Cc1c[nH]c2ccccc12)C(=O)N[C@@H](CCCCN)C(N)=O` [YKAWRWAWRWK]: the minimum inhibitory concentration (MIC) in assay [1] was determined as 4.58 µM (≈ 7.5 µg/mL); in assay [3], 12.2 µM (≈ 20 µg/mL); in assay [2], 3.05 µM (≈ 5 µg/mL).
For `CC[C@H](C)[C@H](NC(=O)CNC(=O)[C@H](CCCCN)NC(=O)[C@@H](NC(=O)[C@H](CC(C)C)NC(=O)[C@H](CO)NC(=O)CNC(=O)[C@H](CC(C)C)NC(=O)CNC(=O)[C@H](C)NC(=O)[C@H](CCCCN)NC(=O)[C@H](Cc1ccccc1)NC(=O)[C@@H](NC(=O)[C@H](CC(=O)O)NC(=O)[C@H](CCCCN)NC(=O)[C@H](CC(C)C)NC(=O)CN)[C@@H](C)CC)C(C)C)C(=O)N[C@@H](C)C(=O)N[C@@H](C)C(=O)N[C@@H](Cc1cnc[nH]1)C(=O)N[C@H](C(=O)N[C@@H](C)C(=O)N[C@@H](CC(N)=O)C(N)=O)C(C)C` [GLKDIFKAGLGSLVKGIAAHVAN], the values for the minimum inhibitory concentration (MIC) in assay [1] and in assay [2] were 25 µM (≈ 57 µg/mL) and 200 µM (≈ 456 µg/mL), respectively.
Turning to `CC(C)[C@H](NC(=O)[C@@H]1CCCN1C(=O)[C@@H](N)Cc1ccccc1)C(=O)N[C@H](C(=O)N[C@@H](Cc1c[nH]c2ccccc12)C(=O)N[C@@H](CCCCN)C(=O)N[C@@H](Cc1c[nH]c2ccccc12)C(=O)N[C@@H](Cc1c[nH]c2ccccc12)C(=O)N[C@@H](CCCCN)C(=O)N[C@@H](Cc1c[nH]c2ccccc12)C(=O)N[C@@H](Cc1c[nH]c2ccccc12)C(=O)N[C@@H](CCCCN)C(=O)NCC(N)=O)[C@@H](C)O` [FPVTWKWWKWWKG], the minimal inhibitory concentration (MIC) in assay [1] was 5.3 µM and 8 µM; in assay [2], 20 µM (≈ 36.7 µg/mL).
With `CC[C@H](C)[C@H](NC(=O)CNC(=O)[C@H](CC(N)=O)NC(=O)[C@@H](NC(=O)[C@@H](NC(=O)CNC(=O)[C@@H](NC(=O)[C@H](CCCCN)NC(=O)[C@@H](NC(=O)CNC(=O)[C@H](CCCCN)NC(=O)CNC(=O)[C@@H](NC(=O)[C@@H](NC(=O)[C@H](CCCCN)NC(=O)[C@@H]1CCCN1C(=O)[C@H](Cc1ccccc1)NC(=O)[C@@H](NC(=O)CN)[C@@H](C)CC)[C@@H](C)CC)[C@@H](C)CC)[C@@H](C)CC)[C@@H](C)O)[C@@H](C)CC)C(C)C)C(=O)N[C@@H](CCCCN)C(=O)N[C@@H](CO)C(=O)N[C@@H](CC(C)C)C(=O)N[C@H](C(=O)N[C@@H](CCCCN)C(=O)NCC(=O)N[C@H](C(=O)NCC(=O)N[C@@H](CCSC)C(=O)N[C@@H](CCCCN)C(=O)N[C@H](C(=O)N[C@@H](Cc1ccccc1)C(=O)N[C@@H](CCCCN)C(=O)N[C@@H](C)C(=O)NCC(=O)N[C@@H](CC(C)C)C(=O)N[C@@H](CO)C(=O)N[C@@H](CC(N)=O)C(=O)N[C@H](C(=O)NCC(=O)N[C@@H](CC(N)=O)C(=O)N[C@H](C(=O)NCC(=O)N[C@H]1CSSC[C@@H](C(=O)O)NC(=O)[C@H](CCC(=O)O)NC(=O)[C@H](CC(=O)O)NC(=O)[C@H](CCC(=O)O)NC(=O)[C@H](CC(N)=O)NC1=O)[C@@H](C)O)[C@@H](C)CC)C(C)C)C(C)C)C(C)C` [GIFPKIIGKGIKTGIVNGIKSLVKGVGMKVFKAGLSNIGNTGCNEDEC], the MIC in assay [1] turned out to be 1 µM (≈ 4.9 µg/mL).
For `CC[C@H](C)[C@H](NC(=O)CN)C(=O)NCC(=O)N[C@@H](CCCCN)C(=O)N[C@@H](CC(C)C)C(=O)N[C@@H](Cc1ccccc1)C(=O)N[C@@H](CC(C)C)C(=O)N[C@@H](Cc1cnc[nH]1)C(=O)N[C@@H](C)C(=O)N[C@@H](C)C(=O)N[C@@H](CCCCN)C(=O)N[C@@H](CCCCN)C(=O)N[C@@H](Cc1ccccc1)C(=O)N[C@@H](C)C(=O)N[C@@H](CCCCN)C(=O)N[C@@H](C)C(=O)N[C@@H](Cc1ccccc1)C(=O)N[C@H](C(=O)N[C@@H](C)C(=O)N[C@@H](CCC(=O)O)C(=O)N[C@@H](CCCCN)C(=O)N[C@@H](CCSC)C(=O)N[C@@H](CC(N)=O)C(=O)N[C@@H](CO)C(=O)O)C(C)C` [GIGKLFLHAAKKFAKAFVAEKMNS], in assay [4], the MIC is 38.4 µM (≈ 100 µg/mL).
For the molecule `C[C@H](NC(=O)[C@H](Cc1ccccc1)NC(=O)[C@H](CCCCN)NC(=O)[C@H](CCCCN)NC(=O)[C@H](C)NC(=O)[C@@H](N)Cc1ccccc1)C(=O)N[C@@H](CCCCN)C(=O)N[C@@H](CCCCN)C(=O)N[C@@H](Cc1ccccc1)C(=O)N[C@@H](CCCCN)C(N)=O` [FAKKFAKKFK], the minimum inhibitory concentration (MIC) in assay [1], in assay [3] and in assay [2] was 193 µM (≈ 240 µg/mL) throughout.
As for `CC(C)C[C@H](NC(=O)[C@H](C)NC(=O)[C@@H](N)CCCCN)C(=O)N[C@@H](Cc1c[nH]c2ccccc12)C(=O)N[C@@H](CCCCN)C(=O)N[C@H](C(=O)N[C@@H](CC(C)C)C(=O)N[C@@H](CC(C)C)C(=O)N[C@@H](CCCCN)C(=O)N[C@@H](CCCCN)C(=O)N[C@H](C(=O)N[C@@H](CC(C)C)C(=O)N[C@@H](CCCCN)C(=O)N[C@@H](C)C(N)=O)C(C)C)[C@@H](C)O` [KALWKTLLKKVLKA], the MIC in assay [1] was 3 µM (≈ 4.92 µg/mL); in assay [2] it was 25 µM (≈ 41 µg/mL).
Regarding `CC(C)C[C@H](NC(=O)[C@H](CC(C)C)NC(=O)[C@H](CC(N)=O)NC(=O)[C@H](CCCCN)NC(=O)[C@H](CC(C)C)NC(=O)[C@H](CC(=O)O)NC(=O)[C@@H](N)C(C)C)C(=O)N[C@@H](CCCCN)C(=O)O` [VDLKNLLK], in assay [3], the MIC is 32 µM (≈ 30.1 µg/mL).
As for `CC(C)C[C@H](NC(=O)[C@H](CCCCN)NC(=O)CNC(=O)[C@@H](N)CO)C(=O)N[C@@H](Cc1ccc(O)cc1)C(=O)N[C@@H](Cc1ccc(O)cc1)C(=O)N[C@@H](CCCN=C(N)N)C(=O)N[C@@H](CCCN=C(N)N)C(=O)N[C@@H](CCCCN)C(=O)N[C@@H](CCCCN)C(N)=O` [SGKLYYRRKK], the MIC in assay [3] and in assay [2] was more than 100 µM throughout.
In turn, `CC[C@H](C)[C@H](NC(=O)[C@H](Cc1c[nH]c2ccccc12)NC(=O)[C@H](CCCN=C(N)N)NC(=O)[C@H](Cc1c[nH]c2ccccc12)NC(=O)[C@H](Cc1c[nH]c2ccccc12)NC(=O)[C@H](CCCN=C(N)N)NC(=O)[C@H](CCCN=C(N)N)NC(=O)[C@H](Cc1c[nH]c2ccccc12)NC(=O)[C@@H](N)CCCN=C(N)N)C(N)=O` [RWRRWWRWI] registered an MIC in assay [1] of 10.7 µM (≈ 16 µg/mL).
For the molecule `CC(C)C[C@H](NC(=O)CN)C(=O)N[C@@H](CC(C)C)C(=O)N[C@@H](CC(=O)O)C(=O)N[C@@H](Cc1ccccc1)C(=O)N[C@@H](CC(C)C)C(=O)N[C@@H](CCCCN)C(=O)N[C@@H](C)C(=O)N[C@@H](C)C(=O)NCC(=O)N[C@@H](CCCCN)C(=O)NCC(=O)N[C@@H](CC(C)C)C(=O)N[C@H](C(=O)N[C@@H](CO)C(=O)N[C@@H](CC(N)=O)C(=O)N[C@@H](CC(C)C)C(=O)N[C@@H](CC(C)C)C(=O)N[C@@H](CCC(=O)O)C(=O)N[C@@H](CCCCN)C(N)=O)C(C)C` [GLLDFLKAAGKGLVSNLLEK], the MIC in assay [1] and in assay [2] was 15 µM (≈ 31.3 µg/mL) in each case.
Take `CSCC[C@H](NC(=O)[C@H](CCCN=C(N)N)NC(=O)[C@H](Cc1c[nH]c2ccccc12)NC(=O)[C@H](C)NC(=O)[C@H](Cc1c[nH]c2ccccc12)NC(=O)[C@H](CCCN=C(N)N)NC(=O)[C@H](Cc1ccc(O)cc1)NC(=O)[C@H](Cc1c[nH]c2ccccc12)NC(=O)[C@H](CCCN=C(N)N)NC(=O)[C@@H](N)CCCN=C(N)N)C(=O)N[C@@H](CCCN=C(N)N)C(N)=O` [RRWYRWAWRMR]: the MIC in assay [1] worked out at 5.8 µM (≈ 9.99 µg/mL); in assay [3], 4.35 µM (≈ 7.5 µg/mL); in assay [2] it was 2.9 µM (≈ 5 µg/mL).
